Experimental data published in US8329699B2, “Pyrrolopyrazine kinase inhibitors” (Hoffmann-La Roche Inc., priority 2010, dated 2012).
Where “and” joins values, the source holds several entries; their conditions need not be identical. Equal values may be shown once. Where a name gives a salt, the structure may show the parent alone.

Experiments:
[1] = target: T1, JAK3: Recombinant human kinase domain (h-jak3-sf21-c) (Homo sapiens, UniProt P52333); experiment: Determination of IC50 of Janus Kinase (JAK) inhibition, JAK3 (radioactive end-point assay with 33P-ATP); type: biochemical; conditions: ATP 1.5 uM, peptide 50 uM, 20 minutes, room temperature
T1 construct: JAK3: Recombinant human kinase domain from Millipore (Cat # 14-629) or prepared; purchased Millipore 14-629
T1 sequence (P52333 822-1111 limits assumed): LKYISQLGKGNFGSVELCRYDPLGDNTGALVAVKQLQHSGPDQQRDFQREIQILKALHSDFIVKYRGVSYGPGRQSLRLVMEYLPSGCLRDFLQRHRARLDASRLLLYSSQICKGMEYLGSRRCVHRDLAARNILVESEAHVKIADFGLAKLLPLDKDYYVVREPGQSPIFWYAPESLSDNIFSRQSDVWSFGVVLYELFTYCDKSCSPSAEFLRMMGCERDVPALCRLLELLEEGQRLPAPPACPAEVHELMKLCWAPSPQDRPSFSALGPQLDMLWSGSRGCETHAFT
Text: Determination of IC50 of Janus Kinase (JAK) Inhibition:
Enzymes and peptide substrate used are described below: • JAK1: Recombinant human kinase domain from Invitrogen (Cat # PV4774) • JAK3: Recombinant human kinase domain from Millipore (Cat # 14-629) or prepared. • JAK2: Recombinant human kinase domain from Millipore (Cat # 14-640) • Substrate: N-terminally biotinylated 14-mer peptide derived from activation loop of JAK1 with sequence of the peptide substrate: Biotin-[…]
Assay conditions used are described below: • Assay Buffer: JAK Kinase Buffer: 50 mM Hepes [pH 7.2], 10 mM MgCl2, 1 mM DTT, 1 mg/mL BSA. The assay is carried out in this buffer. • Assay Format The kinase activity of all three JAK kinases is measured using a radioactive, end-point assay and with trace amounts of^33P-ATP. The assays are carried out in 96-well polypropylene plates. Experimental Method:
All concentrations are final in the reaction mixture and all incubations are carried at room temperature. Assay steps are described below: • 1) Compounds are serially diluted in 100% DMSO typically at a 10× starting concentration of 1 mM. Final concentration of DMSO in the reaction is 10%. • 2) Compounds are preincubated with enzyme (0.5 nM JAK3 (commercially available), 0.2 nM JAK3 (prepared), 1 nM JAK2, 5 nM JAK1) for 10 minutes. • 3) Reactions are initiated by the addition of a cocktail of the two substrates (ATP and peptide premixed in the JAK Kinase Buffer). In the JAK2/JAK3 assays, ATP and the peptide are used at concentrations of 1.5 uM and 50 uM, respectively. JAK1 assay is carried out at an ATP concentration of 10 uM and a peptide concentration of 50 uM. • 4) The duration of the assay for JAK2 and JAK3 is 20 minutes. JAK1 assay is carried out for 40 minutes. With all three enzymes, reactions are terminated by the addition of 0.5M EDTA to a final concentration of 100 mM. • 5) 25 ul of terminated reactions are transferred to 150 ul of a 7.5% (v/v) slurry of streptavidin-coated sepharose beads in MgCl2- and CaCl2-free 1× Phosphate Buffered Saline containing 50 mM of EDTA in 96-well, 1.2 um MultiScreen-BV filter plates. • 6) After a 30-minute incubation, the beads are washed under vacuum with the following buffers: • a. 3 to 4 washes with 200 ul of 2M NaCl. • b. 3 to 4 washes with 200 ul of 2M NaCl plus 1% (v/v) phosphoric acid. • c. 1 wash with water. • 7) Washed plates are dried in a 60° C. oven for between 1 to 2 hours. • 8) 70 ul of Microscint 20 scintillation fluid is added to each well of filter plates and after at least 30 minutes of incubation, radioactive counts are measured in a Perkinelmer microplate scintillation counter.

SMILES | IC50 [1] [nM] | melting point
O=C(Nc1cccc(C(F)(F)F)c1)c1c[nH]c2ncc(C3CC3)nc12 [Compound I-8, 2-Cyclopropyl-5H-pyrrolo[2,3-b]pyrazine-7-carboxylic acid (3-trifluoromethyl-phenyl)-amide] | 963 | 271.1 to 272.9 °C
CC(=O)N[C@@H]1CCc2ccc(Oc3cnc4[nH]cc(C(=O)NC5CCCCC5)c4n3)cc21 [Compound I-40, 2-((R)-3-Acetylamino-indan-5-yloxy)-5H-pyrrolo[2,3-b]pyrazine-7-carboxylic acid cyclohexylamide] | 50.2 | –
CC1(C)OCCC1NC(=O)c1c[nH]c2ncc(C3CC3)nc12 (stereo not drawn) [Compound I-4, 2-Cyclopropyl-5H-pyrrolo[2,3-b]pyrazine-7-carboxylic acid (2,2-dimethyl-tetrahydro-furan-3-yl)-amide] | 5.3 | > 300 °C
CCn1cc(-c2cnc3[nH]cc(C(=O)NC4CCCCC4(C)C)c3n2)cn1 (stereo not drawn) [Compound I-39, 2-(1-Ethyl-1H-pyrazol-4-yl)-5H-pyrrolo[2,3-b]pyrazine-7-carboxylic acid (2,2-dimethyl-cyclohexyl)-amide] | 0.3 | –
CC1(C)CCCC1NC(=O)c1c[nH]c2ncc(C3CC3)nc12 (stereo not drawn) [Compound I-7, 2-Cyclopropyl-5H-pyrrolo[2,3-b]pyrazine-7-carboxylic acid (2,2-dimethyl-cyclopentyl)-amide] | 1.1 | > 300 °C
CS(=O)(=O)N1CCC[C@@H](NC(=O)c2c[nH]c3ncc(C4CC4)nc23)C1 [Compound I-31, 2-Cyclopropyl-5H-pyrrolo[2,3-b]pyrazine-7-carboxylic acid ((R)-1-methanesulfonyl-piperidin-3-yl)-amide] | 3.7 | 277 to 280 °C
CC(C)(O)C1(NC(=O)c2c[nH]c3ncc(C4CC4)nc23)CCOC1 (stereo not drawn) [Compound I-18, 2-Cyclopropyl-5H-pyrrolo[2,3-b]pyrazine-7-carboxylic acid [3-(1-hydroxy-1-methyl-ethyl)-tetrahydro-furan-3-yl]-amide] | 342 | 213 to 215 °C
N#CC1(NC(=O)c2c[nH]c3ncc(C4CC4)nc23)CC1 [Compound I-10, 2-Cyclopropyl-5H-pyrrolo[2,3-b]pyrazine-7-carboxylic acid (1-cyano-cyclopropyl)-amide] | 524 | > 300 °C
CS(=O)(=O)N1CCCC(NC(=O)c2c[nH]c3ncc(C4CC4)nc23)C1 (stereo not drawn) [Compound I-24, 2-Cyclopropyl-5H-pyrrolo[2,3-b]pyrazine-7-carboxylic acid (1-methanesulfonyl-piperidin-3-yl)-amide] | 8 | 284 to 287 °C
O=C(NC1CCCCC1)c1c[nH]c2ncc(Oc3ccc(F)cc3F)nc12 [Compound I-34, 2-(2,4-Difluoro-phenoxy)-5H-pyrrolo[2,3-b]pyrazine-7-carboxylic acid cyclohexylamide] | 424 | 245 to 247 °C
CC(C)(O)C1(NC(=O)c2c[nH]c3ncc(C4CC4)nc23)CCCC1 [Compound I-12, 2-Cyclopropyl-5H-pyrrolo[2,3-b]pyrazine-7-carboxylic acid [1-(1-hydroxy-1-methyl-ethyl)-cyclopentyl]-amide] | 49.7 | 232 to 234 °C
CC(=O)N1CCC(NC(=O)c2c[nH]c3ncc(C4CC4)nc23)CC1 [Compound I-36, 2-Cyclopropyl-5H-pyrrolo[2,3-b]pyrazine-7-carboxylic acid (1-acetyl-piperidin-4-yl)-amide] | 167 | 273 to 275 °C
O=C(NC1(CO)CCOCC1)c1c[nH]c2ncc(C3CC3)nc12 [Compound I-2, 2-Cyclopropyl-5H-pyrrolo[2,3-b]pyrazine-7-carboxylic acid (4-hydroxymethyl-tetrahydro-pyran-4-yl)-amide] | 674 | 294 to 296 °C
CS(=O)(=O)N1CCC(NC(=O)c2c[nH]c3ncc(C4CC4)nc23)C1 (stereo not drawn) [Compound I-20, 2-Cyclopropyl-5H-pyrrolo[2,3-b]pyrazine-7-carboxylic acid (1-methanesulfonyl-pyrrolidin-3-yl)-amide] | 35.4 | > 300 °C
N#CCC1(NC(=O)c2c[nH]c3ncc(C4CC4)nc23)CCCC1 [Compound I-26, 2-Cyclopropyl-5H-pyrrolo[2,3-b]pyrazine-7-carboxylic acid (1-cyanomethyl-cyclopentyl)-amide] | 26.3 | 280 to 281.1 °C and 280 to 281 °C
CS(=O)(=O)N1CCC[C@H](NC(=O)c2c[nH]c3ncc(C4CC4)nc23)C1 [Compound I-30, 2-Cyclopropyl-5H-pyrrolo[2,3-b]pyrazine-7-carboxylic acid ((S)-1-methanesulfonyl-piperidin-3-yl)-amide] | 55.5 | 278 to 281 °C
CS(=O)(=O)N1CCC(NC(=O)c2c[nH]c3ncc(C4CC4)nc23)CC1 [Compound I-21, 2-Cyclopropyl-5H-pyrrolo[2,3-b]pyrazine-7-carboxylic acid (1-methanesulfonyl-piperidin-4-yl)-amide] | 96.2 | 278 to 280 °C
O=C(NC1(CO)CCCC1)c1c[nH]c2ncc(C3CC3)nc12 [Compound I-3, 2-Cyclopropyl-5H-pyrrolo[2,3-b]pyrazine-7-carboxylic acid (1-hydroxymethyl-cyclopentyl)-amide] | 44.2 | 272 to 274 °C
O=C(NC1(C(=O)C2CC2)CCCC1)c1c[nH]c2ncc(C3CC3)nc12 [Compound I-19, 2-Cyclopropyl-5H-pyrrolo[2,3-b]pyrazine-7-carboxylic acid (1-cyclopropanecarbonyl-cyclopentyl)-amide] | 1040 | 296 to 299 °C
N#Cc1cccc(NC(=O)c2c[nH]c3ncc(C4CC4)nc23)c1 [Compound I-5, 2-Cyclopropyl-5H-pyrrolo[2,3-b]pyrazine-7-carboxylic acid (3-cyano-phenyl)-amide] | 735 | 272 to 274 °C
CC(C)(O)C1(NC(=O)c2c[nH]c3ncc(C4CC4)nc23)CCCCC1 [Compound I-14, 2-Cyclopropyl-5H-pyrrolo[2,3-b]pyrazine-7-carboxylic acid [1-(1-hydroxy-1-methyl-ethyl)-cyclohexyl]-amide] | 38.9 | 228 to 230 °C
O=C(N[C@H]1CCOC[C@@H]1O)c1c[nH]c2ncc(C3CC3)nc12 [Compound I-15, 2-Cyclopropyl-5H-pyrrolo[2,3-b]pyrazine-7-carboxylic acid ((3R,4S)-3-hydroxy-tetrahydro-pyran-4-yl)-amide] | 423 | –
CC(C)(O)C1(NC(=O)c2c[nH]c3ncc(C4CC4)nc23)CCNC1 (stereo not drawn) (as salt: hydrochloride) [Compound I-17, 2-Cyclopropyl-5H-pyrrolo[2,3-b]pyrazine-7-carboxylic acid [3-(1-hydroxy-1-methyl-ethyl)-pyrrolidin-3-yl]-amide] | – | 200 to 203 °C
CC(C)(O)C1(NC(=O)c2c[nH]c3ncc(C4CC4)nc23)CCNC1 (stereo not drawn) [Compound I-17, 2-Cyclopropyl-5H-pyrrolo[2,3-b]pyrazine-7-carboxylic acid [3-(1-hydroxy-1-methyl-ethyl)-pyrrolidin-3-yl]-amide] | 10000 | –
CC(=O)N[C@@H]1CCc2ccc(Oc3cnc4[nH]cc(C(=O)NC5CCS(=O)(=O)CC5)c4n3)cc21 [Compound I-41, 2-((R)-3-Acetylamino-indan-5-yloxy)-5H-pyrrolo[2,3-b]pyrazine-7-carboxylic acid (1,1-dioxo-hexahydro-1λ6-thiopyran-4-yl)-amide] | 2160 | –
CC1(C)CCN(S(C)(=O)=O)CC1NC(=O)c1c[nH]c2ncc(C3CC3)nc12 (stereo not drawn) [Compound I-35, 2-Cyclopropyl-5H-pyrrolo[2,3-b]pyrazine-7-carboxylic acid (1-methanesulfonyl-4,4-dimethyl-piperidin-3-yl)-amide] | 2.1 | –
